Legend:
[1] = Encapsulation efficiency, RiboGreen RNA assay (Method A); assay type: physicochemical; conditions: LNP formulated by Method A
Procedure, shortened: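 mRNA-LNPs (Method A formulation) diluted in TE buffer pH 7.4/7.5 and measured in duplicate with and without Triton lysis (37° C., 10 min). RiboGreen fluorescence read at ex 480/em 525. mRNA quantified against a standard curve.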

[2] = LNP size, PDI and zeta potential by Dynamic Light Scattering (Method A); assay type: physicochemical; conditions: LNP formulated by Method A; for Zeta potential (mV): 1xPBS pH 7.4; for PDI / Size (nm): DLS; for Size (nm): Luciferase-mRNA loaded
Procedure, shortened: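 LNPs formulated by microfluidic mixing of mRNA in 10 mM citrate pH 4.0 with ethanolic lipid mix (ionizable lipid added to master mix) at 3:1 aqueous:lipid ratio, then dialysed (100 kDa MWCO). Size, PDI and zeta potential measured by dynamic light scattering.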

| SMILES | EE (%) [1] | Zeta potential (mV) [2] | PDI [2] | Size (nm) [2] |
| --- | --- | --- | --- | --- |
| CCCCCCCCOC(CCCCCCC)O[Si](C)(C)CCCCCCN(CCCCO)CCCCCCOC(=O)C(CCCCCCCC)SCCCCC (centres unmarked) [Example 187, 16-heptyl-7-(4-hydroxybutyl)-14,14-dimethyl-15,17-dioxa-7-aza-14-silapentacosyl 2-(pentylthio)decanoate] | 92% | −14.47 mV | 0.255 | 334.9 nm |
| CCCCCCCCOC(CCCCCN(CCO)CCCCCCCC(=O)OC(CCCCCCCC)CCCCCCCC)O[Si](C)(C)CCCCCCCC (centres unmarked) [Example 189, heptadecan-9-yl 8-((6-((dimethyl(octyl)silyl)oxy)-6-(octyloxy)hexyl)(2-hydroxyethyl)amino)octanoate] | 94% | −10.68 mV | 0.066 | 170 nm |
| CCCCCCCCOC(CCCCCN(CCO)CCCCCCCC(=O)OC(CCCCCCCC)CCCCCCCC)O[Si](C)(C)OCCCCCCCC (centres unmarked) [Example 190, heptadecan-9-yl 18-(2-hydroxyethyl)-10,10-dimethyl-12-(octyloxy)-9,11-dioxa-18-aza-10-silahexacosan-26-oate] | 93% | −11.40 mV | 0.075 | 208.2 nm |
| CCCCCCCCOC(CCCCCN(CCO)CCCCCCCC(=O)OC(CCCCCCCC)CCCCCCCC)O[Si](C)(C)O[Si](C)(C)CCCCCCCC (centres unmarked) [Example 191, heptadecan-9-yl 8-((2-hydroxyethyl)(6-(octyloxy)-6-((1,1,3,3-tetramethyl-3-octyldisiloxaneyl)oxy)hexyl)amino)octanoate] | 96% | −10.35 mV | 0.05 | 159.4 nm |
| CCCCCCCCOC(CCCCCN(CCO)CCCCCCCC(=O)OC(CCCCCCCC)CCCCCCCC)O[Si](C)(C)O[Si](C)(C)OCCCCCCCC (centres unmarked) [Example 192, heptadecan-9-yl 8-((2-hydroxyethyl)(6-(octyloxy)-6-((1,1,3,3-tetramethyl-3-(octyloxy)disiloxaneyl)oxy)hexyl)amino)octanoate] | 97% | −12.28 mV | 0.042 | 175.0 nm |
| CC/C=C\C/C=C\C/C=C\C/C=C\C/C=C\CCCCN(CCCCO)CCCCCC(OCCCCCCCC)O[Si](C)(C)CCCCCCCC (centres unmarked) [Example 194, 4-((6-((dimethyl(octyl)silyl)oxy)-6-(octyloxy)hexyl)((5Z,8Z,11Z,14Z,17Z)-icosa-5,8,11,14,17-pentaen-1-yl)amino)butan-1-ol] | 96% | −16.45 mV | 0.085 | 153.5 nm |
| CC/C=C\C/C=C\C/C=C\C/C=C\C/C=C\CCCCN(CCCCO)CCCCCCOC(CCCCCCC)O[Si](C)(C)CCCCCCCC (centres unmarked) [Example 195, 13-heptyl-5-((5Z,8Z,11Z,14Z,17Z)-icosa-5,8,11,14,17-pentaen-1-yl)-15,15-dimethyl-12,14-dioxa-5-aza-15-silatricosan-1-ol] | 96% | −5.8 mV | 0.04 | 155.2 nm |
| CC/C=C\C/C=C\C/C=C\C/C=C\C/C=C\CCCCN(CCCCO)CCCCCCOC(CCCCCCC)O[Si](C)(C)OCCCCCCCC (centres unmarked) [Example 197, 13-heptyl-5-((5Z,8Z,11Z,14Z,17Z)-icosa-5,8,11,14,17-pentaen-1-yl)-15,15-dimethyl-12,14,16-trioxa-5-aza-15-silatetracosan-1-ol] | 97% | −12.3 mV | 0.135 | 170 nm |
| CC/C=C\C/C=C\C/C=C\C/C=C\C/C=C\CCCCN(CCCCO)CCCCCC(OCCCCCCCC)O[Si](C)(C)O[Si](C)(C)CCCCCCCC (centres unmarked) [Example 198, 4-(((5Z,8Z,11Z,14Z,17Z)-icosa-5,8,11,14,17-pentaen-1-yl)(6-(octyloxy)-6-((1,1,3,3-tetramethyl-3-octyldisiloxaneyl)oxy)hexyl)amino)butan-1-ol] | 98% | −13.07 mV | 0.004 | 158 nm |
| CC/C=C\C/C=C\C/C=C\C/C=C\C/C=C\CCCCN(CCCCO)CCCCCCOC(CCCCCCC)O[Si](C)(C)O[Si](C)(C)CCCCCCCC (centres unmarked) [Example 199, 13-heptyl-5-((5Z,8Z,11Z,14Z,17Z)-icosa-5,8,11,14,17-pentaen-1-yl)-15,15,17,17-tetramethyl-12,14,16-trioxa-5-aza-15,17-disilapentacosan-1-ol] | 97% | −12.42 mV | 0.08 | 164.3 nm |
| CC/C=C\C/C=C\C/C=C\C/C=C\C/C=C\CCCCN(CCCCO)CCCCCC(OCCCCCCCC)O[Si](C)(C)O[Si](C)(C)OCCCCCCCC (centres unmarked) [Example 200, 4-(((5Z,8Z,11Z,14Z,17Z)-icosa-5,8,11,14,17-pentaen-1-yl)(6-(octyloxy)-6-((1,1,3,3-tetramethyl-3-(octyloxy)disiloxaneyl)oxy)hexyl)amino)butan-1-ol] | 97% | −13.03 mV | 0.089 | 155.1 nm |
| CC/C=C\C/C=C\C/C=C\C/C=C\C/C=C\CCCCN(CCCCO)CCCCCCOC(CCCCCCC)O[Si](C)(C)O[Si](C)(C)OCCCCCCCC (centres unmarked) [Example 201, 13-heptyl-5-((5Z,8Z,11Z,14Z,17Z)-icosa-5,8,11,14,17-pentaen-1-yl)-15,15,17,17-tetramethyl-12,14,16,18-tetraoxa-5-aza-15,17-disilahexacosan-1-ol] | 95% | −13.1 mV | 0.055 | 176.2 nm |
| CC/C=C\C/C=C\C/C=C\C/C=C\C/C=C\CCCCN(CCCCO)CCCCCC(OCCCCCCCC)O[Si](C)(C)OCC(CCCCCC)CCCCCCCC (centres unmarked) [Example 202, 16-hexyl-5-((5Z,8Z,11Z,14Z,17Z)-icosa-5,8,11,14,17-pentaen-1-yl)-13,13-dimethyl-11-(octyloxy)-12,14-dioxa-5-aza-13-silatetracosan-1-ol] | 96% | −10.0 mV | 0.072 | 154.8 nm |
| CC/C=C\C/C=C\C/C=C\C/C=C\C/C=C\CCCCN(CCCCO)CCCCCCOC(CCCCCCC)O[Si](C)(C)OCC(CCCCCC)CCCCCCCC (centres unmarked) [Example 203, 13-heptyl-18-hexyl-5-((5Z,8Z,11Z,14Z,17Z)-icosa-5,8,11,14,17-pentaen-1-yl)-15,15-dimethyl-12,14,16-trioxa-5-aza-15-silahexacosan-1-ol] | 94% | −14.95 mV | 0.13 | 139.2 nm |
| CC/C=C\C/C=C\C/C=C\C/C=C\C/C=C\CCCCN(CCCCO)CCCCCC[Si](C)(C)OC(CCCCCCC)OCCCCCCCC (centres unmarked) [Example 204, 14-heptyl-5-((5Z,8Z,11Z,14Z,17Z)-icosa-5,8,11,14,17-pentaen-1-yl)-12,12-dimethyl-13,15-dioxa-5-aza-12-silatricosan-1-ol] | 97% | −10.63 mV | 0.056 | 140 nm |
| CC/C=C\C/C=C\C/C=C\C/C=C\C/C=C\CCCCN(CCCCO)CCCCCCO[Si](C)(C)OC(CCCCCCC)OCCCCCCCC (centres unmarked) [Example 205, 15-heptyl-5-((5Z,8Z,11Z,14Z,17Z)-icosa-5,8,11,14,17-pentaen-1-yl)-13,13-dimethyl-12,14,16-trioxa-5-aza-13-silatetracosan-1-ol] | 97% | −13.13 mV | 0.077 | 197.2 nm |
| CCCCCCCCOC(CCCCCN(CCCCO)CCC[C@@H](C)C1CCC2C3CCC4C[C@H](OC)CC[C@]4(C)C3CC[C@@]21C)O[Si](C)(C)CCCCCCCC (stereo partly drawn) [Example 214, 4-((6-((dimethyl(octyl)silyl)oxy)-6-(octyloxy)hexyl)((4R)-4-((3R,10S,13R)-3-methoxy-10,13-dimethylhexadecahydro-1H-cyclopenta[a]phenanthren-17-yl)pentyl)amino)butan-1-ol] | 97% | −13.59 mV | 0.14 | 191.2 nm |
| CCCCCCCC[Si](C)(C)OC(CCCCCCC)OCCCCCCN(CCCCO)CCC[C@@H](C)C1CCC2C3CCC4C[C@H](OC)CC[C@]4(C)C3CC[C@@]21C (stereo partly drawn) [Example 215, 13-heptyl-5-((4R)-4-((3R,10S,13R)-3-methoxy-10,13-dimethylhexadecahydro-1H-cyclopenta[a]phenanthren-17-yl)pentyl)-15,15-dimethyl-12,14-dioxa-5-aza-15-silatricosan-1-ol] | 94% | −3.3 mV | 0.211 | 204 nm |
| CCCCCCCCOC(CCCCCN(CCCCO)CCC[C@@H](C)C1CCC2C3CCC4C[C@H](OC)CC[C@]4(C)C3CC[C@@]21C)O[Si](C)(C)OCCCCCCCC (stereo partly drawn) [Example 216, 5-((4R)-4-((3R,10S,13R)-3-methoxy-10,13-dimethylhexadecahydro-1H-cyclopenta[a]phenanthren-17-yl)pentyl)-13,13-dimethyl-11-(octyloxy)-12,14-dioxa-5-aza-13-siladocosan-1-ol] | 91% | −15.48 mV | 0.228 | 269.1 nm |
| CCCCCCCCO[Si](C)(C)OC(CCCCCCC)OCCCCCCN(CCCCO)CCC[C@@H](C)C1CCC2C3CCC4C[C@H](OC)CC[C@]4(C)C3CC[C@@]21C (stereo partly drawn) [Example 217, 13-heptyl-5-((4R)-4-((3R,10S,13R)-3-methoxy-10,13-dimethylhexadecahydro-1H-cyclopenta[a]phenanthren-17-yl)pentyl)-15,15-dimethyl-12,14,16-trioxa-5-aza-15-silatetracosan-1-ol] | 96% | −13.68 mV | 0.897 | 178.1 nm |

Source: patent US20260008793A1, “IONIZABLE CATIONIC LIPIDS INCORPORATING SILICON” (ALDEXCHEM KFT., priority 2022, published 2026)
